Assay results taken from patent publication US12613249B2 (THE ROYAL INSTITUTION FOR THE ADVANCEMENT OF LEARNING / …, priority 2019, dated 2026).
“And” between values parts separate entries of the source, which are not always exact repeats. Identical values can stand only once. Square brackets hold non-standard residues; d marks the D form. Peptide text beside a SMILES is read from it.

Tests used:
[1] = MALDI-TOF-MSI brain distribution; format: in vivo, C57BL/6 mice; details: single oral dose 10 mg/kg, 4 h post-administration, sagittal brain sections
Experimental: Frozen brains were stored at −80° C. until needed for analysis. Serial sagittal brain sections (10 μm thick) obtained using a cryostat (Leica Microsystems CM1100, Wetzlar, Germany), were thaw mounted onto an indium tin oxide (ITO) coated glass slide (Bruker, Bremen, Germany). Glass slides were removed from deep freeze and immediately transferred to a vacuum desiccator. Following 12 h desiccation time, the slides were scanned using a flatbed scanner (HP LaserJet 3055). The α-cyano-4-hydroxy cinnamic acid (CHCA) matrix (10 mg/mL) was prepared in 50% acetonitrile (ACN) containing 0.1% trifluoroacetic acid (TFA). The matrix solution was sonicated for 10 min and centrifuged at 10 000 rpm for 10 min before transfer to the ImagePrep (Bruker Daltonics). […] A standard solution of D-AIP (1 μg/mL was analyzed using matrix assisted laser desorption ionization time of flight mass spectrometry (MALDI TOF MS) operated both at reflectron and MALDI MS/MS (LIFT) modes respectively with the aid of the UltraflExtreme MALDI TOF/TOF 2 KHz smartbeam laser (Bruker Daltonics, Bremen, Germany) and FlexControl acquisition software ran in positive ion mode. The instrument was calibrated using standard peptide mix spotted with CHCA matrix on the ground steel target (Bruker Daltonics, Bremen, Germany) for 500-1500 m/z. Each spectrum was acquired from 500 laser shots. […]

[2] = Plasma pharmacokinetics after single oral dose, LC-MS; format: in vivo, C57BL/6 mice; details: for CL/F (apparent total clearance from plasma) / λz (elimination rate constant): plasma
Experimental: An internal standard (IS) for the reliable quantification of D-AIP in biological matrices was prepared by dimethylation to produce an analog of D-AIP by using a protocol previously described (Boersema et al., 2009, Nat Protoc, 4:484-494). Standard solutions (1 mg/mL) each of D-AIP and IS were prepared in deionized water and 100% methanol respectively. 100 μL of IS working solution was prepared at 50 ng/ml added to 25 μL of the sample (plasma or brain homogenate). The sample was vortexed for approximately 5 s and let stand for 10 min, then centrifuged at 16,000 g for 10 min. The supernatant was transferred to a 13×100 polypropylene tube and evaporated to dryness at 50° C. under gentle stream of nitrogen. The dry extract was re-suspended with 40 μL of 0.1% (v/v) formic acid (Sigma Aldrich, St-Louis, MO, USA) in deionized water and transferred to an injection vial for analysis.
Thermo Scientific TSQ Quantiva Triple Quadrupole mass spectrometer (San Jose, CA, USA) was interfaced with the Thermo Scientific UltiMate 3000 XRS UHPLC system (San Jose, CA, USA) using a pneumatic assisted heated electrospray ion source. Data acquisition and analysis were performed using Xcalibur 4.0 (San Jose, CA, USA).
[…]radient elution was used with a Thermo Scientific BioBasic-8 column (100×2 mm I.D. 5 μm) operating at 40° C. The initial mobile phase condition consisted of 0.1% formic acid in acetonitrile and 0.1% formic acid in deionized water at a ratio of 5:95, respectively and this ration was maintained for 1 min. A linear gradient was applied from 1 to 5 min up to a ratio of 50:50 and maintained for 1 min. At 6.1 min, the mobile phase composition was reverted to 5:95 and the column was allowed to equilibrate for 7.9 min for a total run time of 14 min. The D-AIP and IS eluted at 4.7 and 4.8 min respectively at a fixed flow rate of 0.2 mL/min. The eluent was diverted to waste for the first minute and last six minutes. Extracted sample (5 μL) was injected and the acquisition time was set to 14 min.
The mass spectrometer was interfaced with ultra-high-performance liquid chromatography (UHPLC) system using a pneumatic assisted heated electrospray ion source with detection in positive ion mode using […] (MRM). For proper optimization of the mass spectrometer, standard solutions of D-AIP and IS were infused. The obtained source parameters were 50 and 15 arbitrary units respectively while using nitrogen for the sheath and auxiliary gases. The HESI electrode was set to 3500 V, capillary and vaporizer temperature were both set to 300° C. respectively. The MS/MS parameters were optimized using the doubly charged species. Argon was used as collision gas at a pressure of 2.5 mTorr. The precursor-ion reaction for D-AIP were set to 471.4→[591.8+648.3] and for the IS the MRM transitions were set to 499.4→[425.8+468.8+476.8]
Standard solution of D-AIP (1 mg/mL) was diluted in various volumes of deionized water to obtain series of standard working solutions. Calibration standards were prepared by fortifying the mouse plasma and mouse brain homogenate with the standard working solutions at 10% (v/v) to enable analytical concentration range of 1.00 to 1000 ng/ml. The method is linear using a linear regression weighted 1/x analysis, a value of R^2≥0.9979 was obtained for plasma and R^2≥0.9991 for brain homogenate. Samples were injected in duplicate with the calculated in each case and concentrations were processed from the equation obtained from the respective calibration curves using Xcalibur 4.0 software.
Animal care and all animal experiments were undertaken with federal guidelines and approval of the Institutional Animal Ethical Committee of McGill University, Montreal, Canada (Protocol Application Number: 2017-7880) and adequate measures were taken to minimize pain or discomfort. […]

[3] = female C57BL/6 mice, single oral dose 10 mg/kg
[4] = female C57BL/6 mice, single oral dose 30 mg/kg
[5] = female C57BL/6 mice, single oral dose 100 mg/kg
[6] = male C57BL/6 mice, single oral dose 10 mg/kg
[7] = male C57BL/6 mice, single oral dose 100 mg/kg

Question: For C[C@H](O)[C@@H](NC(=O)CNC(=O)[C@H](N)CCCNC(=N)N)C(=O)N[C@H](Cc1ccccc1)C(=O)N[C@H](CCC(=O)O)C(=O)NCC(=O)N[C@H](CCCCN)C(=O)N[C@H](Cc1ccccc1)C(=O)O [D-AIP] (H-[dR]G[dT][dF][dE]G[dK][dF]-OH; N-terminus and C-terminus assumed), which brain distribution [1] is on record?
Answer: Its brain distribution is “distributed across cortex, hippocampus, thalamus and different other brain regions”.

Question: What about the “dose relationship of AUC values” ([2]; 10, 30, 100 mg/kg oral, both sexes) of the same compound?
Answer: Its value is “linear in both sexes”.

Question: And the plasma concentration decline ([2]; both sexes, all doses)?
Answer: The plasma concentration decline was “reached baseline levels after 24 h”.

Question: And the “CL/F (apparent total clearance from plasma)” value (from here on “CL/F”) [2, 3]?
Answer: The value was 30.04 L/h.

Question: And the “λz (elimination rate constant)” value [2, 3]?
Answer: The value was 0.06 h⁻¹.

Question: And the “CL/F” value [2, 4]?
Answer: The value was 42.02 L/h.

Question: What about the “λz (elimination rate constant)” value [2, 4] of the same compound?
Answer: Its value is 0.10 h⁻¹.

Question: What about the “CL/F” value [2, 5] of the same compound?
Answer: Its value is 51.54 L/h.

Question: What about the “λz (elimination rate constant)” value [2, 5] of the same compound?
Answer: The value was 0.21 h⁻¹.

Question: What about the “CL/F” value [2, 6] of the same compound?
Answer: The value was 35.81 L/h.

Question: What about the “λz (elimination rate constant)” value [2, 6] of the same compound?
Answer: The value was 0.15 h⁻¹.

Question: What about the “CL/F” value ([2]; male C57BL/6 mice, single oral dose 30 mg/kg) of the same compound?
Answer: The value was 36.02 L/h.

Question: And the “λz (elimination rate constant)” value ([2]; male C57BL/6 mice, single oral dose 30 mg/kg, 30 mg/kg)?
Answer: Its value is 0.21 h^−1 and 0.21. h^−1.

Question: And the “CL/F” value [2, 7]?
Answer: The value was 48.79 L/h.

Question: And the “λz (elimination rate constant)” value [2, 7]?
Answer: The value was 0.24 h⁻¹.
